Experimental data from patent publication US20170081338A1, “SUBSTITUTED HETEROARYL COMPOUNDS AND METHODS OF USE” (Sunshine Lake Pharma Co., Ltd., priority 2015, published 2017).

Assays:
[1] = target: T1, Aurora-B (h) (Homo sapiens, UniProt Q96GD4); experiment: Aurora-B (h) kinase assay; format: biochemical
T1 construct: purchased Millipore UK Ltd (contract assay service)
Experimental: (§1) Kinase assays can be performed by measurement of incorporation of γ-^33P ATP into immobilized myelin basic protein (MBP). High binding white 384 well plates (Greiner) are coated with MBP (Sigma #M-1891) by incubation of 60 μL/well of 20 μg/mL MBP in Tris-buffered saline (TBS; 50 mM Tris pH 8.0, 138 mM NaCl, 2.7 mM KCl) for 24 h at 4° C. Plates are washed 3× with 100 μL TBS. Kinase reactions are carried out in a total volume of 34 μL in kinase buffer (according to the need to make, for example, 5 mM Hepes pH 7.6, 15 mM NaCl, 0.01% bovine gamma globulin (Sigma #1-5506), 10 mM MgCl2, 1 mM DTT, 0.02% TritonX-100). Compound dilutions are performed in DMSO and added to assay wells to a final DMSO concentration of 1%. Each data point is measured in duplicate, and at least two duplicate assays are performed for each individual compound determination. Enzyme is added to final concentrations of 10 nM or 20 nM, for example. A mixture of unlabeled ATP and γ-^33P ATP is added to start the reaction (2×10^6 cpm of γ-^33P ATP per well (3000 Ci/mmole) and 10 μM unlabeled ATP, typically. The reactions are carried out for 1 h at room temperature with shaking. Plates are washed 7× with TBS, followed by the addition of 50 µL/well scintillation fluid (Wallac). Plates are read using a Wallac Trilux counter. This is only one format of such assays; various other formats are possible, as known to one skilled in the art.
(§2) The above assay procedure can be used to determine the IC50 for inhibition and/or the inhibition constant, Ki. The IC50 is defined as the concentration of compound required to reduce the enzyme activity by 50% under the condition of the assay. The IC50 value is estimated by preparing a 10 point curve using a 1/2 log dilution series (for example, a typical curve may be prepared using the following compound concentrations: 3 μM, 1 μM, 0.3 μM, 0.1 μM, 0.03 μM, 0.01 μM, 0.003 μM, 0.001 μM, 0.0003 μM and 0 μM).
(§3) Aurora-B (h) is incubated with 8 mM MOPS pH 7.0, 0.2 mM EDTA, 30 μM AKRRRLSSLRA, 10 mM MgAcetate and [γ-^33PATP] (specific activity approx. 500 cpm/pmol, concentration as required). The reaction is initiated by the addition of the MgATP mix. After incubation for 40 minutes at room temperature, the reaction is stopped by the addition of a 3% phosphoric acid solution. 10 μL of the reaction is then spotted onto a P30 filtermat and washed three times for 5 minutes in 75 mM phosphoric acid and once in methanol prior to drying and scintillation counting.
(§4) The kinase assays described herein were performed at Millipore UK Ltd, Dundee Technology Park, Dundee DD2 1SW, UK.

[2] = target: T2, Aurora-A (h) (Homo sapiens, UniProt O14965); experiment: Aurora-A (h) kinase assay; format: biochemical
T2 construct: purchased Millipore UK Ltd (contract assay service)
T2 sequence (O14965 1-403): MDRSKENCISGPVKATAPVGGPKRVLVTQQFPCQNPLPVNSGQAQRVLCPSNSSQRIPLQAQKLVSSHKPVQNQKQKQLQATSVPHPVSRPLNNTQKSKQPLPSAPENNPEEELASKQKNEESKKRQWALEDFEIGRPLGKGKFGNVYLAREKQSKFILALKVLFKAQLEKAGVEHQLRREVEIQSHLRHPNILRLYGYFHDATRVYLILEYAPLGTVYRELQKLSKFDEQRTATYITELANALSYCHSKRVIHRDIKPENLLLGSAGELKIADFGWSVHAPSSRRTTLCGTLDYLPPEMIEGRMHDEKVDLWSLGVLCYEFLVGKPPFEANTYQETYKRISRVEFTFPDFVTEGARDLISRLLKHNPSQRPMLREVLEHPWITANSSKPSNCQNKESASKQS
Experimental: as §2
as §3, with “Aurora-A (h)” for “Aurora-B (h)”, “EDTA, 200” for “EDTA, 30”, “μM LRRASLG (Kemptide),” for “μM AKRRRLSSLRA,”, “and [γ-^33P-ATP]” for “and [γ-^33PATP]”, “of” for “of a”
as §4

[3] = Pharmacokinetics after intravenous and oral administration in rats; format: in vivo; details: for Clearance (CL) after iv dosing / AUC(0-t) / half-life / Vd: dose 1 mg/kg, iv dosing; for F: oral bioavailability; for AUC(0-t) / half-life / Vd: rat, plasma; for Vd: read-out: Vss
Summary of the method: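 Compounds dosed IV at 0.5, 1 or 2 mg/kg and orally at 0.5, 1, 5 or 10 mg/kg in rats, as solution, suspension or capsule formulations. Serial blood sampled out to 24 h and plasma stored frozen. Plasma levels quantified by LC/MS/MS in ESI MRM mode.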

[4] = Compound stability in human liver microsomes; format: in vitro ADME; details: pH 7.4; for half-life at 5 μM: human liver microsomes 0.5 mg protein/mL, compound 5 μM, NADPH, 37° C., read-out: Human T1/2; for CLint scaled at 5 μM: human liver microsomes, in vivo CLint extrapolated
Summary of the method: (§5)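 After a 3-min preincubation, reactions of 5 μM compound with NADPH (1.0 mM) were started by adding microsomal protein to 0.5 mg/mL and run at 37° C in pH 7.4 phosphate buffer. Aliquots were stopped with ice-cold acetonitrile at up to 60 min. Parent levels were then measured by LC/MS/MS.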

[5] = Compound stability in rat liver microsomes; format: in vitro ADME; details: pH 7.4; for half-life at 5 μM: rat liver microsomes 0.5 mg protein/mL, compound 5 μM, NADPH, 37° C., read-out: Rat T1/2; for CLint scaled at 5 μM: rat liver microsomes, in vivo CLint extrapolated
Summary of the method: as §5

[6] = target: T3, JAK1 (h) (Homo sapiens, UniProt P23458); experiment: JAK1 (h) kinase assay; format: biochemical
T3 construct: purchased Millipore UK Ltd (contract assay service)
T3 sequence (P23458 whole entry): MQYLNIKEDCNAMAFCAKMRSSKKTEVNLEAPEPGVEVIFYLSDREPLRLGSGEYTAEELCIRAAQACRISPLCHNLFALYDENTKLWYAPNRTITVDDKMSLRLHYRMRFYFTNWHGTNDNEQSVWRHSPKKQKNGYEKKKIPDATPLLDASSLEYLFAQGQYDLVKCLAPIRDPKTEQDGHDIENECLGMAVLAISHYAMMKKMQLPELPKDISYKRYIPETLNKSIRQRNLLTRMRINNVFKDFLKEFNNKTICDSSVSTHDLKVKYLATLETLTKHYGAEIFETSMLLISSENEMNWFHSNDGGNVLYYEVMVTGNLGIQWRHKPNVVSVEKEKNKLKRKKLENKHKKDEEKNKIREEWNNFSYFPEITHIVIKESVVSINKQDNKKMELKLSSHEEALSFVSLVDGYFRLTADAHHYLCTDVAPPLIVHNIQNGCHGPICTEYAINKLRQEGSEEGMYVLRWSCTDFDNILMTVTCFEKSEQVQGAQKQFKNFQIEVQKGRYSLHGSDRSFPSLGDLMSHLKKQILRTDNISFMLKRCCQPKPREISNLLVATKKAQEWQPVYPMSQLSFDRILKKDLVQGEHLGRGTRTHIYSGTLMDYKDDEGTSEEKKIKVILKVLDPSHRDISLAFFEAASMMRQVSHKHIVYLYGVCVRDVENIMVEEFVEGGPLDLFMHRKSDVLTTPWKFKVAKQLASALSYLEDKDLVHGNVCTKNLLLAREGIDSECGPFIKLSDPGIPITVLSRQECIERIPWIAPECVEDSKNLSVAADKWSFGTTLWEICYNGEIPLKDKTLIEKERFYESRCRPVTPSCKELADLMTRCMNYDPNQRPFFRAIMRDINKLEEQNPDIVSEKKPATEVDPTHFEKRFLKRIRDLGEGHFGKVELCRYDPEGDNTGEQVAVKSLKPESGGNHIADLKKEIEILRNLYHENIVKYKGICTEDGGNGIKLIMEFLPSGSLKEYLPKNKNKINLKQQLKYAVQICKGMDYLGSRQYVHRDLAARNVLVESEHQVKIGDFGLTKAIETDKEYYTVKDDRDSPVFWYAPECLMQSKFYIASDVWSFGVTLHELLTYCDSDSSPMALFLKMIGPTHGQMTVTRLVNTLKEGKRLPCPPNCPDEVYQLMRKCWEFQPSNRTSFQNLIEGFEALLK
Experimental: as §1, §2
JAK1 (h) is incubated with 20 mM Tris/HCl pH 7.5, 0.2 mM EDTA, 500 μM GEEPLYWSFPAKKK, 10 mM MgAcetate and [γ-^33P-ATP] (specific activity approx. 500 cpm/pmol, concentration as required). The reaction is initiated by the addition of the MgATP mix. After incubation for 40 minutes at room temperature, the reaction is stopped by the addition of 3% phosphoric acid solution. 10 μL of the reaction is then spotted onto a P30 filtermat and washed three times for 5 minutes in 75 mM phosphoric acid and once in methanol prior to drying and scintillation counting.
as §4

T1 sequence (Q96GD4 whole entry): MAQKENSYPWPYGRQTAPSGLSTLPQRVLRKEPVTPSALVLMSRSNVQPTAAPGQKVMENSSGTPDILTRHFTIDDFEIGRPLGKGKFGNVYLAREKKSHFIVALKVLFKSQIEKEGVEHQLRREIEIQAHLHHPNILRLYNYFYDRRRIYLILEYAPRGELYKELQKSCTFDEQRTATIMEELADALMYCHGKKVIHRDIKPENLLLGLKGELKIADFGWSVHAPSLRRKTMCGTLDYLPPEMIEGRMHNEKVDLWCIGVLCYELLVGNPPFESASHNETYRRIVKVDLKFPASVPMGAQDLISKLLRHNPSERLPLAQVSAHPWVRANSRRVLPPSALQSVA

| SMILES | IC50 [1] | IC50 [2] | Clearance (CL) after iv dosing [3] | F [3] | AUC(0-t) [3] | half-life [3] | Vd [3] | half-life at 5 μM [4] | CLint scaled at 5 μM [4] | half-life at 5 μM [5] | CLint scaled at 5 μM [5] | IC50 [6] |
| --- | --- | --- | --- | --- | --- | --- | --- | --- | --- | --- | --- | --- |
| Cn1cc(Nc2ncc(Cl)c(N[C@@H]3COC4C3OC[C@@H]4NS(=O)(=O)CC3CCCO3)n2)cn1 (stereo partly drawn) [Ex. 34, N-((3S,6R)-6-((5-chloro-2-((1-methyl-1H-pyrazol-4-yl)amino)pyrimidin-4-yl)amino)hexahydrofuro[3,2-b]furan-3-yl)-1-(tetrahydrofuran-2-yl)methanesulfonamide] | 21 nM | 24 nM |  | 28.9% | 1540 ng·h/mL | 37.8 min | 1.23 L/kg |  |  |  |  |  |
| Cn1cc(Nc2ncc(Cl)c(N[C@@H]3COC4C3OC[C@@H]4NS(=O)(=O)C3CCOC3)n2)cn1 (stereo partly drawn) [Ex. 20, N-((3S,6R)-6-((5-chloro-2-((1-methyl-1H-pyrazol-4-yl)amino)pyrimidin-4-yl)amino)hexahydrofuro[3,2-b]furan-3-yl)tetrahydrofuran-3-sulfonamide] |  | 41 nM | 60.3 mL/min/kg | 42.5% | 284 ng·h/mL | 27.6 min | 1.41 L/kg | 75.5 min | 23 mL/min/kg | 116 min | 21.5 mL/min/kg |  |
| Cn1cc(Nc2ncc(Cl)c(N[C@@H]3COC4C3OC[C@@H]4NS(=O)(=O)C3CCCC3)n2)cn1 (stereo partly drawn) [Ex. 14, N-((3S,6R)-6-((5-chloro-2-((1-methyl-1H-pyrazol-4-yl)amino)pyrimidin-4-yl)amino)hexahydrofuro[3,2-b]furan-3-yl)cyclopentanesulfonamide] |  | 51 nM | 33.3 mL/min/kg | 91.9% | 497 ng·h/mL | 54 min | 1.08 L/kg | 24.7 min | 70.4 mL/min/kg | 47.7 min | 52.1 mL/min/kg |  |

Second part, the molecule after the results:

| IC50 [1] | IC50 [2] | Clearance (CL) after iv dosing [3] | F [3] | AUC(0-t) [3] | half-life [3] | Vd [3] | half-life at 5 μM [4] | CLint scaled at 5 μM [4] | half-life at 5 μM [5] | CLint scaled at 5 μM [5] | IC50 [6] | SMILES |
| --- | --- | --- | --- | --- | --- | --- | --- | --- | --- | --- | --- | --- |
| 8 nM | 17 nM | 24.2 mL/min/kg | 67.4% | 696 ng·h/mL | 37.8 min | 0.82 L/kg |  |  |  |  |  | Cn1cc(Nc2ncc(Cl)c(N[C@@H]3COC4C3OC[C@@H]4NS(=O)(=O)CC(C)(C)C)n2)cn1 (stereo partly drawn) [Ex. 30, N-((3S,6R)-6-((5-chloro-2-((1-methyl-1H-pyrazol-4-yl)amino)pyrimidin-4-yl)amino)hexahydrofuro[3,2-b]furan-3-yl)-2,2-dimethylpropane-1-sulfonamide] |
| 25 nM | 18 nM | 23.2 mL/min/kg | 53.6% | 725 ng·h/mL | 17.4 min | 0.57 L/kg |  |  |  |  |  | CCC(C)CS(=O)(=O)N[C@H]1COC2C1OC[C@H]2Nc1nc(Nc2cnn(C)c2)ncc1Cl (stereo partly drawn) [Ex. 33, N-((3S,6R)-6-((5-chloro-2-((1-methyl-1H-pyrazol-4-yl)amino)pyrimidin-4-yl)amino)hexahydrofuro[3,2-b]furan-3-yl)-2-methylbutane-1-sulfonamide] |
| 18 nM | 12 nM | 18.8 mL/min/kg | 88.1% | 947 ng·h/mL | 37.2 min | 0.71 L/kg |  |  |  |  |  | Cn1cc(Nc2ncc(Cl)c(N[C@@H]3COC4C3OC[C@@H]4NS(=O)(=O)CC3CCC3)n2)cn1 (stereo partly drawn) [Ex. 31, N-((3S,6R)-6-((5-chloro-2-((1-methyl-1H-pyrazol-4-yl)amino)pyrimidin-4-yl)amino)hexahydrofuro[3,2-b]furan-3-yl)-1-cyclobutylmethanesulfonamide] |
| 6 nM | 2 nM | 24.8 mL/min/kg | 63.7% | 680 ng·h/mL | 18 min | 0.69 L/kg |  |  |  |  | 24 nM | Cn1cc(Nc2ncc(Cl)c(N[C@@H]3COC4C3OC[C@@H]4NS(=O)(=O)CC3CCCC3)n2)cn1 (stereo partly drawn) [Ex. 21, N-((3S,6R)-6-((5-chloro-2-((1-methyl-1H-pyrazol-4-yl)amino)pyrimidin-4-yl)amino)hexahydrofuro[3,2-b]furan-3-yl)-1-cyclopentylmethanesulfonamide] |
